Experimental data reported in patent US7183411B2, “Naphthol, quinoline and isoquinoline-derived urea modulators of vanilloid VR1 receptor” (Janssen Pharmaceutica N.V., priority 2002, dated 2007).
Where two headings read alike, the source gives them in different places.

Columns and labels:
[1] = target: recombinant rat VR1 (rVR1/HEK293) (Rattus norvegicus, UniProt O35433); assay: Broadly stimulated recombinant rat VR1 functional assay (Ca2+ influx, FLIPR); conditions: for IC50: recombinant rat VR1, Ca2+ influx
Description: In an effort to identify potent and efficacious antagonists at human and rat VR1 that were active under conditions simulating aspects of in vivo inflammation functional assays were developed using FLIPR to determine antagonist activity against endogenous activators and stimuli likely to be present in inflammation. Cell lines were constructed that stably expressed recombinant rat VR1 (rVR1/HEK293). Cells were exposed to various stimuli at their EC80, with the exception of the low pH and DTT stimuli.
These studies were corroborated and further studies were performed to confirm that the phorbol ester effect was not due to direct effects on the channel. […] Cells were challenged with 300 nM PMA (˜EC80) after 3 min in the indicated antagonist.
Cells were challenged with 5–10 mM DTT to stimulate VR1 after 3 min incubation in compound.
We performed assays similar to those described for the human recombinant receptor with the exception that a lower pH was required in the Ca^2+ influx assay at the rat recombinant receptor.

human VR1 [2] = target: T1, human VR1 (Homo sapiens, UniProt Q8NER1); assay: Broadly stimulated recombinant human VR1 functional assay (Ca2+ influx, FLIPR); format: cell-based
T1 construct: expressed in transfected cells; host or cells: HEK293

human VR1 [3] = target: T1, human VR1; assay: Human VR1 functional assay (FLIPR intracellular Ca2+, capsaicin challenge); format: cell-based; conditions: read-out: In vitro functional assays hIC50 or EC50
Description: The functional activity of the test compounds was determined by measuring changes in intracellular calcium concentration using a Ca^++-sensitive fluorescent dye and FLIPR™ technology.
HEK293 Cells expressing human VR1 were grown on poly-D-lysine coated 96 well black-walled plates (BD 354640) and 2 days later loaded with Fluo-3/AM for 1 hour and subsequently tested for agonist-induced increases in intracellular Ca^2+ levels using FLIPR™ technology. […] EC50 or IC50 values were determined from dose-response studies.

[4] = target: T2, human VR1 vanilloid receptors (Homo sapiens, UniProt Q8NER1); assay: [3H] RTX binding assay, hVR1 membranes from transfected HEK293 cells; conditions: for Ki: human VR1, read-out: Receptor binding Ki
T2 construct: expressed in transfected cells; host or cells: HEK293
Description: Compounds of the present invention were tested for their ability to inhibit the binding of [^3H] RTX to hVR1 receptors in a [^3H] RTX binding assay as previously described (Zhang, Sui-Po. Improved ligand binding assays for vanilloid receptors. PCT Int. Appl. (2002), 29 pp. CODEN: PIXXD2 WO 0233411 A1 20020425 AN 2002:315209; Grant, Elfrida R.; Dubin, Adrienne E.; Zhang, Sui-Po; Zivin, Robert A.; Zhong, Zhong Simultaneous intracellular calcium and sodium flux imaging in human vanilloid receptor 1 (VR1)-transfected human embryonic kidney cells: a method to resolve ionic dependence of VR1-mediated cell death. Journal of Pharmacology and Experimental Therapeutics (2002), 300(1), 9–17.)
HEK293 cells were transfected with human VR1 vanilloid receptors and washed with Hank's Balanced Salt Solution, dissociated with cell dissociation buffer (Sigma), and then centrifuged at 1000×g for 5 min. Cell pellets were homogenized in cold 20 mM HEPES buffer, pH 7.4, containing 5.8 mM NaCl, 320 mM sucrose, 2 mM MgCl2, 0.75 CaCl2 and 5 mM KCl and centrifuged at 1000×g for 15 min. The resultant supernate was then centrifuged at 40000×g for 15 min. The pelleted membranes were kept in an −80° C. freezer.
Approximately 120 μg protein/ml from membranes were incubated with indicated concentrations of [^3H] RTX in 0.5 ml of the HEPES buffer (pH 7.4) containing 0.25 mg/mL fatty acid-free bovine serum albumin at 37° C. for 60 min. The reaction mixture was then cooled to 4° C., 0.1 mg α1-acid glycoprotein added to each sample and incubated at 4° C. for 15 min. The samples were centrifuged at 18500×g for 15 min. The tip of the microcentrifuge tube containing the pellet was cut off. Bound radioactivity was quantified by scintillation counting. Non-specific binding was tested in the presence of 200 nM unlabeled RTX.

[5] = test system: Carrageenan paw-induced thermal hyperalgesia; assay: Carrageenan paw-induced thermal hyperalgesia; format: in vivo; conditions: rat, po, reversal of carrageenan thermal hyperalgesia; read-out: CgHP ED50
Description: Each rat is placed on a heated surface (51° C.) in order to measure the time necessary to elicit a response, and an initial (baseline) response time to a thermal stimuli was recorded for each animal. A response is defined as any shaking, licking, or tucking of the treated paw or jumping. Animals not treated with a test compound respond in approximately 20 seconds. The maximal exposure time permitted is 60 seconds to prevent tissue damage. Rats were injected with an irritant (e.g., 1% carrageenan solution in 0.9% saline) subcutaneously into the sub-plantar tissue of the left hind paw to stimulate an acute inflammatory reaction.
Two hours later, the response time of the animal to the thermal stimulus was evaluated and compared to the animal's baseline response time. This shorter response time was recorded as percent hyperalgesia (% H). A cut-off value for % H (usually 75%) was used during analysis to ensure that the animals were hyperalgesic. Animals were then dosed with test drug or vehicle.
At some time(s) later (typically 45 and 90 minutes), the response time of the animal to the thermal stimulus was again evaluated. For each time point, a percent reversal of hyperalgesia (% R) was calculated using the following formula: % R=(Drug Latency−Carrageenan latency)/(Baseline latency−Carrageenan latency). ED50 values were calculated from % R obtained at several drug doses.

[6] = target: T3, VR1 expressed endogenously on small rat dorsal root ganglion (DRG) neurons (Rattus norvegicus, UniProt O35433); assay: Electrophysiologic functional assay using dissociated rat DRG cells; format: cell-based; conditions: read-out: In vitro functional assays Estimated pA2 (rat) (converted)
T3 construct: VR1 expressed endogenously on small rat dorsal root ganglion (DRG) neurons; endogenous in cells; host or cells: dissociated rat DRG neurons
Description: Compounds are tested for their activity on VR1 expressed endogenously on small rat dorsal root ganglion (DRG) neurons. DRG neurons from normal rats were dissociated (see methods in Chaplan et al., 2003) and whole cell currents mediated by VR1 were recorded using the whole cell patch clamp technique.

[7] = recombinant human VR1, Ca2+ influx, stimulus 300 nM PMA, read-out: IC50, PKC phosphorylation
[8] = recombinant human VR1, Ca2+ influx, stimulus low pH (pH 6.5), read-out: IC50, Low pH

recombinant rat VR1 (rVR1/HEK293), sequence (O35433 whole entry): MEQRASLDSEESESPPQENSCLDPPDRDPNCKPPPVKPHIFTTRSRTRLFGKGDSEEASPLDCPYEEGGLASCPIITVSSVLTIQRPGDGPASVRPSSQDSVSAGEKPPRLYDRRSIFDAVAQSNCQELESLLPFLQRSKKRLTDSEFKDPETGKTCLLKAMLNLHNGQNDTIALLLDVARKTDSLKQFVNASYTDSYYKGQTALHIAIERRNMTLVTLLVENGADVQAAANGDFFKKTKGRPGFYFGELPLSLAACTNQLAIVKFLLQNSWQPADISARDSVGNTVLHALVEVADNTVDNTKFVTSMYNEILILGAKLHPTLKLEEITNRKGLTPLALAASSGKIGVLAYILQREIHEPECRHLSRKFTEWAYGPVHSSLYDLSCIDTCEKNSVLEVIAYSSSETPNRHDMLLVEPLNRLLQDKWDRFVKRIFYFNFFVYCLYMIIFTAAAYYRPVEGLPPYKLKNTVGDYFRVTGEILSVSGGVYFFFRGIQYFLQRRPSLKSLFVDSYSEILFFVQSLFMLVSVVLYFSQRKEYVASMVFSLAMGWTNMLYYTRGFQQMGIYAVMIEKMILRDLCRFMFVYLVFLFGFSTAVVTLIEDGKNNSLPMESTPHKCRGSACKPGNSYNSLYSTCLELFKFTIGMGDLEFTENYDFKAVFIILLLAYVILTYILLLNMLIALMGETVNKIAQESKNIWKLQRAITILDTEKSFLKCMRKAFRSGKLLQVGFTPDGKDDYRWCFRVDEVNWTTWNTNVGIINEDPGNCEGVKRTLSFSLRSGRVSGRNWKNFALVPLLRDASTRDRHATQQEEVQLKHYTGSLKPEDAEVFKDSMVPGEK
T1 sequence (Q8NER1 whole entry): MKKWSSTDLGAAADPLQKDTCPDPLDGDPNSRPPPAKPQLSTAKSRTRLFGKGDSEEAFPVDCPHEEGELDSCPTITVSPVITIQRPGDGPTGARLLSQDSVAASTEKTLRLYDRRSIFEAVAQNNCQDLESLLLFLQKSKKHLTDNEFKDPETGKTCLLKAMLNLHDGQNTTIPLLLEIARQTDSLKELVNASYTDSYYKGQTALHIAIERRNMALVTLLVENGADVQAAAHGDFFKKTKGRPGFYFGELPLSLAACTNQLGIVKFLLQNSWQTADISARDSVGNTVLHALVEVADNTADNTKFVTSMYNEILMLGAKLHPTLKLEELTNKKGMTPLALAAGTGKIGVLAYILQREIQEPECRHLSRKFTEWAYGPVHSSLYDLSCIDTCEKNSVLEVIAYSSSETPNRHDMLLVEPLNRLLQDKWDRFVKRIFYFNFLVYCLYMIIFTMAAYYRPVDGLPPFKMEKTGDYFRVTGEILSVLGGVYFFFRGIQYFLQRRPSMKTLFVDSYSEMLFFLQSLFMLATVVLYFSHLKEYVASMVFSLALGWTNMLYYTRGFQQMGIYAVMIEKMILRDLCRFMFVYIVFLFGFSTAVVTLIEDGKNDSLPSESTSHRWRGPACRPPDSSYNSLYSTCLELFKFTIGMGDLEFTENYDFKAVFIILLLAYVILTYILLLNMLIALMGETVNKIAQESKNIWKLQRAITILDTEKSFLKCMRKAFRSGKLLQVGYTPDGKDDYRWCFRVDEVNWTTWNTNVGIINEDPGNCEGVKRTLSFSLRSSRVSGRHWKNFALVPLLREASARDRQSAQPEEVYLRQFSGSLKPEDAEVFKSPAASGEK
T2 sequence (Q8NER1 whole entry): as above
T3 sequence (O35433 whole entry): as the sequence (O35433 whole entry) above

Row | IC50 or EC50 (human VR1 [3]) | Ki [4] | Compound | other results
1 |  |  | Oc1cc2c(cc1O)CN(C(=S)NCCc1ccc(Cl)cc1)CCC2 [Capsazepine, capsazepine] | IC50 ([1]; IC50, Anandamide, stimulus anandamide 10 μM): 1.3 µM; IC50 ([1]; IC50, Low pH, stimulus low pH (pH 5.9)): 5 µM; IC50 ([1]; IC50, PKC phosphorylation at low pH, PMA at low pH): 10 µM; IC50 ([1]; IC50, PKC phosphorylation, stimulus 300 nM PMA): 10 µM; IC50 (human VR1 [2]; human recombinant receptor, FIG. 1, read-out: potency to inhibit Ca2+ activity induced by the panel of stimuli): 100 to 300 nM; IC50 (human VR1 [2]; recombinant human VR1, Ca2+ influx, PMA at low pH, read-out: IC50, PKC phosphorylation at low pH): 370 nM; IC50 (human VR1 [2]; [7]): 160 nM; IC50 (human VR1 [2]; [8]): 110 nM
2 | 8 nM | 12.6 nM | O=C(NCCc1ccc(Cl)c(Cl)c1)Nc1cccc2cnccc12 [Compound 1] | 
3 | 19 nM | 41.2 nM | O=C(NCCc1cccc(C(F)(F)F)c1)Nc1cccc2cnccc12 [Compound 2] | 
4 | 36 nM | 88.7 nM | O=C(NCCc1ccc(Cl)cc1)Nc1cccc2cnccc12 [Compound 3] | 
5 |  | 6.87 nM | O=C(NCc1ccc(C(F)(F)F)cc1)Nc1cccc2cnccc12 [Compound 4] | ED50 [5]: 0.804 mg/kg
6 | 4 nM | 8.87 nM | O=C(NCc1ccc(Cl)c(Cl)c1)Nc1cccc2cnccc12 [Compound 5] | 
7 | 5.6 nM | 31 nM | O=C(NCc1ccc(Cl)cc1)Nc1cccc2cnccc12 [Compound 6] | 
8 | 11 nM | 22.7 nM | O=C(NCc1cccc(C(F)(F)F)c1)Nc1cccc2cnccc12 [Compound 7] | 
9 | 18 nM | 12.9 nM | Cc1cc2c(NC(=O)NCc3ccc(Cl)c(Cl)c3)cccc2cn1 [Compound 8] | 
10 | 9.4 nM | 39 nM | Cc1cc2c(NC(=O)NCc3cccc(C(F)(F)F)c3)cccc2cn1 [Compound 9] | 
11 |  | 5.62 nM | COc1ccc(C(CNC(=O)Nc2cccc3cnccc23)CC2CCCCC2)cc1 (stereo not shown) [Compound 12] | 
12 | 20 nM | 0.12 nM | CC(C)(C)c1ccc(CNC(=O)Nc2cccc3ccc(O)cc23)cc1 [Compound 13] | 
13 | 4.9 nM | 3.27 nM | O=C(NCc1ccc(Cl)cc1)Nc1cccc2ccc(O)cc12 [Compound 14] | 
14 | 3700 nM |  | O=C(NCc1cccnc1)Nc1cccc2ccc(O)cc12 [Compound 15] | inhibition at 1 µM ([4]; human VR1, 1 μM compound, read-out: Receptor binding % Inhibition @ 1 μM): 11%
15 | 27 nM | 0.11 nM | O=C(NCc1ccc(OC(F)(F)F)cc1)Nc1cccc2ccc(O)cc12 [Compound 16] | 
16 | 4 nM | 0.1 nM | O=C(NCc1ccc(C(F)(F)F)cc1)Nc1cccc2ccc(O)cc12 [Compound 17] | ED50 [5]: 20 mg/kg
17 | 45 nM | 93.5 nM | O=C(NCc1ccccc1)Nc1cccc2ccc(O)cc12 [Compound 18] | 
18 | 26 nM | 0.38 nM | O=C(NCc1cccc(C(F)(F)F)c1)Nc1cccc2ccc(O)cc12 [Compound 19] | 
19 | 680 nM | 1290 nM | COc1ccc(CCNC(=O)Nc2cccc3cnccc23)cc1 [Compound 21] | 
20 | 3.3 nM | 1.28 nM | O=C(NCc1ccc(OC(F)(F)F)cc1)Nc1cccc2cnccc12 [Compound 22] | 
21 |  | 53.5 nM | O=C(NCCc1ccccc1)Nc1cccc2ccc(O)cc12 [Compound 23] | 

Row | IC50 or EC50 (human VR1 [3]) | Ki [4] | Compound | other results
22 |  | 3280 nM | O=C(Nc1cccc2ccc(O)cc12)N(Cc1ccccc1)Cc1ccccc1 [Compound 25] | 
23 | 10000 nM | 18600 nM | CN(Cc1ccccc1)C(=O)Nc1cccc2ccc(O)cc12 [Compound 26] | 
24 | 97 nM | 1.22 nM | O=C(NCCc1ccc(Cl)c(Cl)c1)Nc1cccc2ccc(O)cc12 [Compound 27] | 
25 | 44 nM | 36.1 nM | O=C(NCc1ccc(C(F)(F)F)nc1)Nc1cccc2ccc(O)cc12 [Compound 29] | 
26 |  | 581 nM | CN(Cc1ccc(Cl)c(Cl)c1)C(=O)Nc1cccc2ccc(O)cc12 [Compound 30] | 
27 | 15 nM | 2.03 nM | O=C(NCc1ccc(Cl)c(Cl)c1)Nc1cccc2ccc(O)cc12 [Compound 31] | 
28 |  | 2540 nM | O=C(NCc1nc2ccccc2[nH]1)Nc1cccc2ccc(O)cc12 [Compound 32] | 
29 | 5.8 nM | 1.3 nM | CC(C)(C)c1ccc(CCNC(=O)Nc2cccc3cnccc23)cc1 [Compound 35] | 
30 |  | 22.4 nM | O=C(NCCc1ccc(C(F)(F)F)cc1)Nc1cccc2cnccc12 [Compound 36] | 
31 | 45 nM | 193 nM | COc1ccc(CNC(=O)Nc2cccc3cnccc23)cc1 [Compound 37] | 
32 | 11 nM | 6.03 nM | O=C(NCCc1ccc(OC(F)(F)F)cc1)Nc1cccc2cnccc12 [Compound 38] | 
33 |  | 7.22 nM | O=C(NCc1ccc(F)c(F)c1)Nc1cccc2ccc(O)cc12 [Compound 42] | 
34 |  | 2.79 nM | O=C(NCc1ccc(Cl)cc1Cl)Nc1cccc2ccc(O)cc12 [Compound 47] | 
35 |  | 7.35 nM | O=C(NCc1ccc(C(F)(F)F)cc1)Nc1cccc2c(Cl)nccc12 [Compound 55, 1-(1-Chloro-isoquinolin-5-yl)-3-(4-trifluoromethyl-benzyl)-urea] | Kb [6]: < 30 nM
36 |  | 5.16 nM | O=C(NCc1cc(C(F)(F)F)cc(C(F)(F)F)c1)Nc1cccc2ccc(O)cc12 [Compound 58] | 
37 |  | 7340 nM | O=C(NCc1ccc(C(F)(F)F)cc1)Nc1cccc2cncc(Cl)c12 [Compound 59] | 
38 | 10000 nM | 129 nM | CN(CC1CCCCC1)c1ccc(CNC(=O)Nc2cnc3ccccc3c2)cc1 [Compound 65] | 
39 |  |  | OO [Compound H2O2, H2O2] | EC80 for H2O2-induced Ca2+ flux (human VR1 [2]; VR1/HEK cells, species not stated): 0.015 % H2O2
40 |  |  | CCCCCCCCCCCCCC(=O)O[C@@H]1[C@@H](C)[C@@]2(O)[C@@H](C=C(CO)C[C@]3(O)C(=O)C(C)=C[C@@H]23)[C@@H]2C(C)(C)[C@]12OC(C)=O [PMA, phorbol-12-myristate-13-acetate] | EC50 ([1]; read-out: EC50 (increase in intracellular Ca2+), agonist at rat recombinant VR1): 90 nM; EC50 (human VR1 [2]; agonist at human recombinant VR1, read-out: EC50 (increase in intracellular Ca2+)): 90 nM
41 |  |  | Cl.Cl.Cl.Cl.Cl.Cl.N.N.N.N.N.N.N.N.N.N.N.N.N.N.[O-2].[O-2].[Ru+3].[Ru+3].[Ru+4] [Ruthenium Red, ruthenium red] | IC50 ([1]; read-out: IC50, Anandamide, stimulus anandamide 10 μM): 1.86 µM; IC50 ([1]; read-out: IC50, PKC phosphorylation, stimulus 300 nM PMA): 0.3 µM; IC50 (human VR1 [2]; [7]): 500 nM; IC50 (human VR1 [2]; [8]): 500 nM
42 |  |  | CCCCC/C=C\C/C=C\C/C=C\C/C=C\CCCC(=O)NCCO [anandamide, Anandamide] | EC50 [1]: 5000 nM; EC50 (human VR1 [2]): 3000 nM
